In PMC6897379 (Clinical cancer research : an official journal of the …, 2019):
Where two headings read alike, the source gives them in different places.

Experiments:
[1] = adults; twice daily for 7 days; DLT neutropenia and stomatitis; cited from earlier work
[2] = system: atypical teratoid rhabdoid (ATRT) cell lines; conditions: ATRT cell lines that overexpress AAK with SMARCB1 mutations; cited from earlier work
[3] = system: ALL-8 xenograft; assay: ALL-8 xenograft, comparison of dosing schedules; format: in vivo, NOD/SCID mice
[4] = system: relapsed or refractory solid tumors; conditions: cited from earlier work
[5] = cited from earlier work
[6] = system: ALL-19 xenograft; assay: ALL-19 xenograft, comparison of dosing schedules; format: in vivo, NOD/SCID mice
[7] = children, cited from earlier work
[8] = system: p53-wildtype, therapy-refractory NBL cell lines; conditions: cited from earlier work
[9] = Phase 2 trial toxicity monitoring; format: in vivo, human
[10] = system: NBL xenografts; conditions: PPTP; cited from earlier work
[11] = system: relapsed/refractory solid tumors or acute leukemia; assay: Phase 2 trial; format: in vivo, human
[12] = system: pediatric solid tumor models; conditions: cited from earlier work
[13] = Toxicity versus germline AURKA genotype; format: in vivo, human
[14] = mice receiving 10 mg/kg; cited from earlier work
[15] = system: ALL xenografts; conditions: PPTP; cited from earlier work
[16] = Plasma pharmacokinetics in children and adolescents, with UGT1A1 phenotype; format: in vivo, human; conditions: for concentration at 4 day: 80 mg/m^2, Alisertib Cmin Median (range), day 4, I/E, I, P
[17] = Schedule A, 10.4 mg/kg oral gavage twice daily × 7 days
[18] = Schedule A, twice daily × 7 days
[19] = Schedule B, 10.4 mg/kg oral gavage twice daily × 5 days × 3 weeks
[20] = Schedule B, twice daily × 5 days × 3 weeks
[21] = adults, 50 mg enteric coated tablets
[22] = population PK model, 363 adults, 7 single agent trials
[23] = human, in vivo, 1 cycle (21 days)
[24] = Acute Lymphoblastic Leukemia, 10 response evaluable
[25] = Ewing Sarcoma, 10 response evaluable
[26] = Germ Cell Tumor, 7 response evaluable
[27] = Hepatoblastoma, 8 response evaluable
[28] = Neuroblastoma (MIBG Evaluable), 24 response evaluable
[29] = Neuroblastoma (Measurable), 24 response evaluable
[30] = Non-Rhabdo Soft Tissue Sarcoma, 10 response evaluable
[31] = Osteosarcoma, 10 response evaluable
[32] = Rhabdoid Tumors, 4 response evaluable
[33] = Rhabdomyosarcoma, 10 response evaluable
[34] = Total, all strata, 137 response evaluable
[35] = Wilms tumor, 10 response evaluable

COc1cc(Nc2ncc3c(n2)-c2ccc(Cl)cc2C(c2c(F)cccc2OC)=NC3)ccc1C(=O)O [alisertib, Alisertib]
Recommended dose [1]: 50 mg
Effect on cell lines [2]: induce cell death and augment radiation sensitivity
Objective response ([3]; Schedule A and Schedule B): neither of the treatment schedules induced an objective response
Median EFS Treated [3, 17]: 19.8 days
EFS T-C [3, 18]: 10.9 days
EFS T/C [3, 18]: 2.2
Median EFS Treated [3, 19]: 31.9 days
EFS T-C [3, 20]: 23.0 days
EFS T/C [3, 20]: 3.6
Human cells in the bone marrow, lowest levels achieved ([3]; both alisertib schedules): approximately 20%
Human cells in the spleen, lowest levels achieved ([3]; both alisertib schedules): 5–10%
Additional delay of leukemia progression, Schedule B compared with Schedule A ([3]; p=0.004): 12.1 days
Duration of stable disease ([4]; 8 children, phase 1 trial): 5–35 cycles
Children with stable disease ([4]; NBL (n=4) and sarcoma (n=4), of 33 response evaluable children): 8
Recommended phase 2 dose ([4]; children and adolescents, orally, once daily for 7 days): 80 mg/m^2
Children with a PR ([4]; hepatoblastoma, of 33 response evaluable children): one
Area under concentration time curve (AUC) [5, 21]: 20.9 µM·h
Steady state trough concentration (Cmin) [5, 21]: exceeding 1 μM
AUC0–24 h ([5]; patients receiving 50 mg BID): 40 µM·h
Cmax ([5]; patients receiving 50 mg BID): 1300 nM
Apparent clearance (CL/F) [5, 22]: 4.25 L/h
Terminal half-life [5, 22]: 19.3 h
Average trough concentrations ([5]; recommended phase 2 dose of 50 mg BID for 7 days): exceeded 1 μM
Median EFS Treated [6, 17]: 13.6 days
Leukemia progression compared with controls ([6]; Schedule A, serial peripheral blood parameters): not significantly different from that of controls
EFS T-C [6, 18]: 7.0 days
EFS T/C [6, 18]: 2.0
Median Response Score [6, 18]: PD2
Median EFS Treated [6, 19]: 31.2 days
EFS T-C [6, 20]: 24.6 days
EFS T/C [6, 20]: 4.7
Trough 24 hours after the first dose ([7]; 80 mg/m^2 dose level): 1.1 µM
Cmax ([7]; recommended dose 80 mg/m^2): 7500 ± 100 nM
Activity in cell lines [8]: active
Dehydration Grade 3 ([9]; alisertib related, all cycles (n=500)): 6 (1.2%) n (%)
Patients with fatal adverse events possibly related to alisertib ([9]; during cycle 1): two
ALT increased Grade 3 ([9]; human, in vivo): 17 (3.4%) n (%)
AST increased Grade 3 ([9]; human, in vivo): 10 (2%) n (%)
Alisertib-related grade 3 or 4 anemia ([9]; human, in vivo): 13.6%
Alisertib-related grade 3 or 4 leukopenia ([9]; human, in vivo): 33%
Alisertib-related grade 3 or 4 lymphopenia ([9]; human, in vivo): 12.2%
Alisertib-related grade 3 or 4 neutropenia ([9]; human, in vivo): 51.8%
Alisertib-related grade 3 or 4 thrombocytopenia ([9]; human, in vivo): 20.8%
Anemia Grade 3 ([9]; human, in vivo): 63 (12.6%) n (%)
Anemia Grade 4 ([9]; human, in vivo): 5 (1%) n (%)
Anorexia Grade 3 ([9]; human, in vivo): 1 (0.2%) n (%)
Depression Grade 4 ([9]; human, in vivo): 1 (0.2%) n (%)
Diarrhea Grade 3 ([9]; human, in vivo): 2 (0.4%) n (%)
Dizziness Grade 3 ([9]; human, in vivo): 14 (2.8%) n (%)
Enterocolitis Grade 3 ([9]; human, in vivo): 1 (0.2%) n (%)
Febrile neutropenia Grade 3 ([9]; human, in vivo): 18 (3.6%) n (%)
GGT increased Grade 3 ([9]; human, in vivo): 1 (0.2%) n (%)
Hepatic hemorrhage Grade 5 ([9]; human, in vivo): 1 (0.2%) n (%)
Hyperbilirubinemia Grade 3 ([9]; human, in vivo): 3 (0.6%) n (%)
Hypersomnia Grade 3 ([9]; human, in vivo): 1 (0.2%) n (%)
Hyperuricemia Grade 4 ([9]; human, in vivo): 1 (0.2%) n (%)
Hypoalbuminemia Grade 3 ([9]; human, in vivo): 1 (0.2%) n (%)
Hypocalcemia Grade 3 ([9]; human, in vivo): 1 (0.2%) n (%)
Hypokalemia Grade 3 ([9]; human, in vivo): 4 (0.8%) n (%)
Hypokalemia Grade 4 ([9]; human, in vivo): 1 (0.2%) n (%)
Hyponatremia Grade 3 ([9]; human, in vivo): 3 (0.6%) n (%)
Hypophosphatemia Grade 3 ([9]; human, in vivo): 1 (0.2%) n (%)
INR increased Grade 3 ([9]; human, in vivo): 1 (0.2%) n (%)
Infection Grade 3 ([9]; human, in vivo): 1 (0.2%) n (%)
Leukopenia Grade 3 ([9]; human, in vivo): 117 (23.4%) n (%)
Leukopenia Grade 4 ([9]; human, in vivo): 48 (9.6%) n (%)
Lymphopenia Grade 3 ([9]; human, in vivo): 47 (9.4%) n (%)
Lymphopenia Grade 4 ([9]; human, in vivo): 14 (2.8%) n (%)
Nausea Grade 3 ([9]; human, in vivo): 2 (0.4%) n (%)
Neutropenia Grade 3 ([9]; human, in vivo): 124 (24.8%) n (%)
Neutropenia Grade 4 ([9]; human, in vivo): 137 (27.4%) n (%)
Oral mucositis Grade 3 ([9]; human, in vivo): 19 (3.8%) n (%)
Palmar-plantar erythrodysesthesia Grade 3 ([9]; human, in vivo): 2 (0.4%) n (%)
Photophobia Grade 3 ([9]; human, in vivo): 1 (0.2%) n (%)
Pneumonia Grade 3 ([9]; human, in vivo): 1 (0.2%) n (%)
Respiratory failure Grade 5 ([9]; human, in vivo): 1 (0.2%) n (%)
Serum amylase increased Grade 3 ([9]; human, in vivo): 1 (0.2%) n (%)
Thrombocytopenia Grade 3 ([9]; human, in vivo): 54 (10.8%) n (%)
Thrombocytopenia Grade 4 ([9]; human, in vivo): 50 (10%) n (%)
Tumor lysis syndrome Grade 4 ([9]; human, in vivo): 1 (0.2%) n (%)
Urinary tract infection Grade 3 ([9]; human, in vivo): 1 (0.2%) n (%)
Vomiting Grade 3 ([9]; human, in vivo): 2 (0.4%) n (%)
Patients who experienced dose limiting toxicity [9, 23]: 18 patients
Patients who experienced dose limiting toxicity, percent [9, 23]: 13%
Oral pain Grade 3 ([9]; human, in vivo, po): 5 (1%) n (%)
Most frequent toxicity ([9]; in vivo): myelosuppression
Xenografts with maintained complete responses [10]: 3 of 7
Non-responders [11, 24]: 1
Progressive Disease [11, 24]: 6
Stable Disease n patients [11, 24]: 3 n patients
Non-responders ([11]; Acute Myeloid Leukemia, 10 response evaluable): 10
Non-responders [11, 25]: 2
Progressive Disease [11, 25]: 5
Stable Disease n patients [11, 25]: 3 n patients
Non-responders [11, 26]: 1
Progressive Disease [11, 26]: 4
Stable Disease n patients [11, 26]: 2 n patients
Stable Disease cycles administered ([11]; Hepatoblastoma): 5 cycles
Non-responders [11, 27]: 2
Progressive Disease [11, 27]: 4
Stable Disease n patients [11, 27]: 1 n patients
Stable Disease median (range) cycles administered ([11]; Neuroblastoma (MIBG Evaluable)): 13 (5–35) cycles
Non-responders [11, 28]: 4
Progressive Disease [11, 28]: 9
Stable Disease n patients [11, 28]: 9 n patients
Non-responders [11, 29]: 5
Progressive Disease [11, 29]: 16
Stable Disease n patients [11, 29]: 2 n patients
Stable Disease cycles administered ([11]; Non-Rhabdo Soft Tissue Sarcoma): 5 cycles
Non-responders [11, 30]: 2
Progressive Disease [11, 30]: 7
Stable Disease n patients [11, 30]: 1 n patients
Responses in the other primary disease strata ([11]; OS, EWS, RMS, ALL, AML): No responses
Non-responders [11, 31]: 2
Progressive Disease [11, 31]: 8
Non-responders [11, 32]: 1
Progressive Disease [11, 32]: 3
Stable Disease cycles administered ([11]; Rhabdomyosarcoma): 15 cycles
Non-responders [11, 33]: 2
Progressive Disease [11, 33]: 7
Stable Disease n patients [11, 33]: 1 n patients
Non-responders [11, 34]: 33
Progressive Disease [11, 34]: 76
Stable Disease n patients [11, 34]: 23 n patients
Stable Disease cycles administered ([11]; Wilms tumor): 31 cycles
Non-responders [11, 35]: 1
Progressive Disease [11, 35]: 7
Stable Disease n patients [11, 35]: 1 n patients
Objective responses observed ([11]; all strata, 137 evaluable for response): Five
Objective response rate ([11]; children and adolescents receiving single agent alisertib): less than 5%
Event free survival ([12]; Wilms tumor, rhabdomyosarcoma and osteosarcoma xenograft models): Statistically significant improvement
Solid tumor models with objective responses ([12]; pediatric xenograft models): 80%
Cycle 1 DLT No ([13]; AURKA 91 A>T VV): 8
Grade 2+ Toxicity Yes ([13]; AURKA 91 A>T VV): 8
Cycle 1 DLT Yes ([13]; AURKA 91 A>T WV): 5
Grade 2+ Toxicity No ([13]; AURKA 91 A>T WV): 5
Cycle 1 DLT Yes ([13]; AURKA 91 A>T WW): 8
Grade 2+ Toxicity No ([13]; AURKA 91 A>T WW): 9
Cycle 1 DLT No ([13]; AURKA 169G>A VV): 2
Grade 2+ Toxicity No ([13]; AURKA 169G>A VV): 1
Grade 2+ Toxicity Yes ([13]; AURKA 169G>A VV): 1
Cycle 1 DLT No ([13]; AURKA 169G>A WV): 18
Cycle 1 DLT Yes ([13]; AURKA 169G>A WV): 3
Grade 2+ Toxicity No ([13]; AURKA 169G>A WV): 4
Cycle 1 DLT Yes ([13]; AURKA 169G>A WW): 10
Grade 2+ Toxicity No ([13]; AURKA 169G>A WW): 9
Grade 2+ Toxicity Yes ([13]; AURKA 169G>A WW): 54
Cycle 1 DLT No ([13]; AURKA Haplotype H1): 25
Cycle 1 DLT Yes ([13]; AURKA Haplotype H1): 5
Grade 2+ Toxicity No ([13]; AURKA Haplotype H1): 4
Cycle 1 DLT Yes ([13]; AURKA Haplotype H2): 8
Grade 2+ Toxicity No ([13]; AURKA Haplotype H2): 10
Cycle 1 DLT Yes ([13]; Total genotyped patients): 13
Grade 2+ Toxicity No ([13]; Total genotyped patients): 14
12 h level [14]: 1.2 µM
AUC0–24 h [14]: 39 µM·h
Cmax [14]: 16000 nM
Xenografts with maintained complete responses [15]: 6 out of 6
Patients exceeding the 1 μM target trough concentration on day 4 ([16]; 26/39 patients): 67%
Difference in population mean trough concentrations ([16]; IM/PM versus EM, p 0.0091): 1.05 µM
Patients with Cmin exceeding 1μM on day 7 ([16]; human, in vivo, 7 day): 41%
concentration at 4 day ([16]; human, plasma, oral, Grade ≥ 2: Yes (n=8)): 1800 nM
concentration at 4 day ([16]; human, plasma, oral, Grade ≥ 2, No (n=8)): 2220 nM
concentration at 7 day ([16]; human, plasma, oral, 80 mg/m^2, Median Cmin on day 7, cycle 1): 900 nM
Difference in population mean trough concentrations ([16]; with versus without ≥ grade 2 toxicities, not statistically significant): 0.08 µM
